Data from PubChem BioAssay (NCI).
Several values for one entry are separate records, joined by “and”; a condition that tells them apart may be missing. Equal entries are not always repeated.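 Five compound concentrations were applied to cells in 96-well plates for 48 hours; endpoints were derived by simple linear interpolation of the resulting dose-response curve. The concentration for 50% growth inhibition is given as GI50. Definition used: TGI = concentration required for complete inhibition of growth.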

Tests used:
Assay in all cases: inhibition of tumour cell growth, NCI panel, 48 h
[1] = tested on: MALME-3M melanoma
[2] = tested on: SNB-19 CNS
[3] = tested on: NCI-H226 lung
[4] = tested on: CCRF-CEM leukemia
[5] = tested on: M14 melanoma
[6] = tested on: CAKI-1 renal
[7] = tested on: SK-MEL-28 melanoma
[8] = tested on: U251 CNS
[9] = tested on: MDA-MB-231 breast
[10] = tested on: SW-620 colon
[11] = tested on: RXF 393 renal
[12] = tested on: OVCAR-8 ovarian
[13] = tested on: NCI-H460 lung
[14] = tested on: EKVX NSCLC
[15] = tested on: HS 578T breast
[16] = tested on: PC-3 prostate
[17] = tested on: UACC-62 melanoma
[18] = tested on: HOP-62 NSCLC
[19] = tested on: MOLT-4 leukemia
[20] = tested on: HOP-92 NSCLC
[21] = tested on: UO-31 renal
[22] = tested on: ACHN renal
[23] = tested on: SK-MEL-2 melanoma
[24] = tested on: SF-295 CNS
[25] = tested on: SR leukemia
[26] = tested on: A549 NSCLC
[27] = tested on: K-562 leukemia
[28] = tested on: NCI-H23 lung
[29] = tested on: HT29 colon
[30] = tested on: RPMI-8226 leukemia
[31] = tested on: HL-60(TB) leukemia
[32] = tested on: OVCAR-5 ovarian
[33] = tested on: NCI/ADR-RES ovarian
[34] = tested on: 786-0 renal
[35] = tested on: HCT-116 colon
[36] = tested on: SN12C renal
[37] = tested on: SF-539 CNS
[38] = tested on: BT-549 breast
[39] = tested on: COLO 205 colon
[40] = tested on: SK-OV-3 ovarian
[41] = tested on: IGROV1 ovarian
[42] = tested on: NCI-H522 lung
[43] = tested on: SF-268 CNS
[44] = tested on: OVCAR-4 ovarian
[45] = tested on: MDA-MB-435
[46] = tested on: MCF7 breast
[47] = tested on: DU-145 prostate
[48] = tested on: HCT-15 colon
[49] = tested on: HCC-2998 colon
[50] = tested on: TK-10 renal
[51] = tested on: T-47D breast
[52] = tested on: SK-MEL-5 melanoma
[53] = tested on: KM12 colon
[54] = tested on: OVCAR-3 ovarian
[55] = tested on: SNB-75 CNS
[56] = tested on: UACC-257 melanoma
[57] = tested on: A498 renal
[58] = tested on: LOX IMVI melanoma

`O=c1cc(-c2cccc3ccccc23)[nH]c2ncccc12` was tested, and the TGI [1] was 0.0462 µM, the GI50 [2] was 0.0366 µM and the TGI [2] was greater than 100 µM. For the same molecule, the TGI [3] was greater than 100 µM, the GI50 [4] was 0.0201 µM and the TGI [4] was greater than 100 µM. For the same molecule, the GI50 [5] was 0.0275 µM, the TGI [5] was greater than 100 µM and the TGI [6] was greater than 100 µM. For the same molecule, the GI50 [7] was 0.0158 µM, the TGI [7] was greater than 100 µM and the GI50 [8] was 0.0103 µM. The TGI [8] was greater than 100 µM, the GI50 [9] was 0.0479 µM and the TGI [9] was greater than 100 µM. It also gave a TGI [10] greater than 100 µM, a GI50 [11] of 11.9 µM and a GI50 [12] of 0.0338 µM. For the same molecule, the TGI [12] was 0.889 µM and 0.453 µM, the GI50 [13] was 0.0392 µM and the TGI [13] was greater than 100 µM. For the same molecule, the GI50 [14] was 0.0239 µM, the TGI [14] was greater than 100 µM and the GI50 [15] was 0.0186 µM. It also gave a TGI [15] greater than 100 µM, a TGI [16] greater than 100 µM and a TGI [17] greater than 100 µM. For the same molecule, the TGI [18] was greater than 100 µM, the GI50 [19] was 0.0449 µM and the TGI [19] was greater than 100 µM. For the same molecule, the GI50 [20] was 0.773 µM, the TGI [20] was 70.1 µM and the GI50 [21] was 0.0741 µM. It also gave a TGI [21] greater than 100 µM, a GI50 [22] of 0.0425 µM and a TGI [22] greater than 100 µM. The GI50 [23] was 0.0136 µM, the TGI [23] was greater than 100 µM and the TGI [24] was greater than 100 µM. For the same molecule, the TGI [25] was greater than 100 µM, the GI50 [26] was 0.0216 µM and the TGI [26] was greater than 100 µM. The TGI [27] was greater than 100 µM, the TGI [28] was greater than 100 µM and the TGI [29] was 0.0608 µM. It also gave a TGI [30] greater than 100 µM, a TGI [31] of 0.0315 µM and a TGI [32] greater than 100 µM. It also gave a GI50 [33] of 0.0173 µM, a TGI [33] greater than 100 µM and a TGI [34] greater than 100 µM. The TGI [35] was 21.3 µM, the GI50 [36] was 0.149 µM and the TGI [36] was greater than 100 µM. For the same molecule, the GI50 [37] was 0.0159 µM, the TGI [38] was greater than 100 µM and the TGI [39] was 0.0587 µM and 0.136 µM. The GI50 [40] was 0.0147 µM, the GI50 [41] was 0.0417 µM and the TGI [41] was greater than 100 µM. The GI50 [42] was 0.0158 µM, the TGI [42] was 0.0698 µM and 0.0767 µM and the GI50 [43] was 10.1 µM. The TGI [43] was greater than 100 µM, the GI50 [44] was 77.6 µM and the TGI [44] was greater than 100 µM. For the same molecule, the TGI [45] was 0.00404 µM, the TGI [46] was 4.25 µM and the TGI [47] was greater than 100 µM. For the same molecule, the TGI [48] was 10.3 µM, the GI50 [49] was 0.0313 µM and the TGI [49] was 0.424 µM and 1.54 µM.
`COc1cc(Cn2c(-c3ccccc3)c(Cl)c3c2-c2oncc2CC3)cc(OC)c1` was tested, and the GI50 [1] was 4.16 µM, the TGI [1] was 21.1 µM and the GI50 [2] was 22.8 µM. The TGI [2] was greater than 100 µM, the GI50 [3] was 13 µM and the TGI [3] was 43.3 µM. The GI50 [4] was 3.54 µM, the TGI [4] was greater than 100 µM and the GI50 [5] was 4.22 µM. It also gave a TGI [5] of 18.1 µM, a GI50 [6] of 5.24 µM and a TGI [6] greater than 100 µM. For the same molecule, the GI50 [7] was 8.52 µM, the TGI [7] was greater than 100 µM and the GI50 [8] was 6.2 µM. For the same molecule, the TGI [8] was greater than 100 µM, the GI50 [9] was 11.4 µM and the TGI [9] was 44.9 µM. It also gave a GI50 [10] of 3.7 µM, a TGI [10] of 19.2 µM and a GI50 [11] of 5.96 µM. It also gave a TGI [11] of 21.5 µM, a GI50 [12] of 15.9 µM and a TGI [12] greater than 100 µM. For the same molecule, the GI50 [50] was 26.5 µM, the TGI [50] was greater than 100 µM and the GI50 [13] was 4.91 µM. The TGI [13] was 84 µM, the GI50 [14] was 4.97 µM and the TGI [14] was greater than 100 µM. The GI50 [51] was 17.5 µM, the TGI [51] was greater than 100 µM and the GI50 [15] was 3.71 µM. The TGI [15] was 82.3 µM, the GI50 [16] was 7.12 µM and the TGI [16] was greater than 100 µM. It also gave a GI50 [17] of 3.84 µM, a TGI [17] of 31.3 µM and a GI50 [18] of 44 µM. For the same molecule, the TGI [18] was greater than 100 µM, the GI50 [19] was 3.43 µM and the TGI [19] was greater than 100 µM. For the same molecule, the GI50 [20] was 50 µM, the TGI [20] was greater than 100 µM and the GI50 [52] was 5.5 µM. For the same molecule, the TGI [52] was 19.6 µM, the GI50 [21] was 4.16 µM and the TGI [21] was 27.7 µM. The GI50 [22] was 9.31 µM, the TGI [22] was greater than 100 µM and the GI50 [23] was 10.6 µM. It also gave a TGI [23] greater than 100 µM, a GI50 [53] of 4.19 µM and a TGI [53] greater than 100 µM. It also gave a GI50 [24] of 3.05 µM, a TGI [24] greater than 100 µM and a GI50 [25] of 2.92 µM. For the same molecule, the TGI [25] was 15.5 µM, the GI50 [54] was 4.63 µM and the TGI [54] was 22.9 µM. It also gave a GI50 [26] of 8.57 µM, a TGI [26] greater than 100 µM and a GI50 [27] of 3.08 µM. For the same molecule, the TGI [27] was greater than 100 µM, the GI50 [55] was 5.03 µM and the TGI [55] was 75.3 µM. The GI50 [28] was 6.15 µM, the TGI [28] was greater than 100 µM and the GI50 [29] was 3.71 µM. It also gave a TGI [29] greater than 100 µM, a GI50 [56] of 39.3 µM and a TGI [56] greater than 100 µM. It also gave a GI50 [30] of 7.11 µM, a TGI [30] greater than 100 µM and a GI50 [31] of 3.32 µM. For the same molecule, the TGI [31] was 38.6 µM, the GI50 [32] was 47 µM and the TGI [32] was greater than 100 µM. For the same molecule, the GI50 [33] was 2.58 µM, the TGI [33] was 8.96 µM and the GI50 [34] was 12.9 µM. The TGI [34] was greater than 100 µM, the GI50 [57] was 2.96 µM and the TGI [57] was 90.3 µM. It also gave a GI50 [35] of 3.47 µM, a TGI [35] of 14.9 µM and a GI50 [36] of 12.7 µM. The TGI [36] was 38.4 µM, the GI50 [37] was 8.19 µM and the TGI [37] was 70.9 µM. It also gave a GI50 [58] of 3.06 µM, a TGI [58] of 12 µM and a GI50 [39] of 8.03 µM. It also gave a TGI [39] of 30.6 µM, a GI50 [40] of 15.2 µM and a TGI [40] greater than 100 µM. The GI50 [41] was 4.89 µM, the TGI [41] was 21.7 µM and the GI50 [42] was 2.15 µM. It also gave a TGI [42] of 10.1 µM, a GI50 [43] of 9.61 µM and a TGI [43] greater than 100 µM. The GI50 [44] was 6.57 µM, the TGI [44] was 79.8 µM and the GI50 [45] was 2.26 µM. For the same molecule, the TGI [45] was 5.97 µM, the GI50 [46] was 3.81 µM and the TGI [46] was greater than 100 µM. For the same molecule, the GI50 [47] was 26.6 µM, the TGI [47] was greater than 100 µM and the GI50 [48] was 4.84 µM. The TGI [48] was greater than 100 µM, the GI50 [49] was 9.97 µM and the TGI [49] was greater than 100 µM.
